Experimental data reported in patent publication US20080009418A1, “Selective Inhibitors” (Alchemia LTD., priority 2004, published 2008).

Experiments:
Human δ-opioid (DOP) = target: T1, Human δ-opioid (DOP) (Homo sapiens, UniProt P41143); experiment: Radioligand binding, human δ-opioid (DOP) membranes, FlashPlate, [3H]-Bremazocine; conditions: compound at 10 μM, [3H]-Bremazocine; for A1: inhibition of radioligand binding: human DOP membranes
T1 construct: purchased Perkin Elmer Biosignal
In short: (§1)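 Cloned human receptor membranes were coated onto FlashPlate wells and incubated with radioligand and compound (added from a 0.5 mM DMSO daughter plate) for 1 hour at room temperature in the dark. Scintillation counting gave percent inhibition, with DMSO defining total and reference ligand defining non-specific binding.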

Human κ-Opioid (KOP) = target: T2, Human κ-Opioid (KOP) (Homo sapiens, UniProt P41145); experiment: Radioligand binding, human κ-opioid (KOP) membranes, filtration, [3H]-Diprenorphine; conditions: compound at 10 μM, [3H]-Diprenorphine; for A2: inhibition of radioligand binding: human KOP membranes
T2 construct: purchased Perkin Elmer Biosignal
In short: (§2)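 Percent inhibition of radioligand binding measured on recombinant human membranes: NK1 with [125I]-Substance P, KOP with [3H]-Diprenorphine. Incubation 1 h at room temperature, then harvest onto 0.3% PEI-soaked filters, cold Tris-HCl pH 7.4 washes and scintillation counting; non-specific binding from reference ligand wells.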

Human Melanocortin (MC3) = target: T3, Human Melanocortin (MC3) (Homo sapiens, UniProt P41968); experiment: Radioligand binding, human melanocortin MC3 membranes, FlashPlate, [125I]-NDP-αMSH; conditions: compound at 10 μM, [125I]-NDP-αMSH; for A3: inhibition of radioligand binding: human MC3 membranes
T3 construct: purchased Perkin Elmer Biosignal
In short: as §1

Human Melanocortin (MC4) = target: T4, Human Melanocortin (MC4) (Homo sapiens, UniProt P32245); experiment: Radioligand binding, human melanocortin MC4 membranes, FlashPlate, [125I]-NDP-αMSH; conditions: compound at 10 μM, [125I]-NDP-αMSH; for A4: inhibition of radioligand binding: human MC4 membranes
T4 construct: purchased Perkin Elmer Biosignal
In short: as §1

Human melanocortin (MC5) = target: T5, Human melanocortin (MC5) (Homo sapiens, UniProt P33032); experiment: Radioligand binding, human melanocortin MC5 membranes, FlashPlate, [125I]-NDP-αMSH; conditions: compound at 10 μM, [125I]-NDP-αMSH; for A5: inhibition of radioligand binding: human MC5 membranes
T5 construct: purchased Perkin Elmer Biosignal
In short: as §1

[1] = target: T6, Human melanin-concentrating hormone (MCH1) (Homo sapiens, UniProt Q99705); experiment: Radioligand binding, human melanin-concentrating hormone MCH1 membranes, FlashPlate, [125I]-S36057; conditions: compound at 10 μM; for A6: inhibition of radioligand binding: [125I]-S36057, human MCH1 membranes; for A6: inhibition of radioligand binding, human melanin-concentrating hormone (MCH1): [125I]-S36057
T6 construct: purchased Perkin Elmer Biosignal
In short: as §1

Human μ-opioid (MOP) = target: T7, Human μ-opioid (MOP) (Homo sapiens, UniProt P35372); experiment: Radioligand binding, human μ-opioid (MOP) membranes, FlashPlate, [3H]-Naloxone; conditions: compound at 10 μM, [3H]-Naloxone; for A7: inhibition of radioligand binding: human MOP membranes
T7 construct: purchased Perkin Elmer Biosignal
In short: as §1

Human neurokinin (NK1) = target: T8, Human neurokinin (NK1) (Homo sapiens, UniProt P25103); experiment: Radioligand binding, human neurokinin NK1 membranes, filtration, [125I]-Substance P; conditions: compound at 10 μM, [125I]-Substance P; for A8: inhibition of radioligand binding: human NK1 membranes
T8 construct: purchased Perkin Elmer Biosignal
In short: as §2

[2] = target: T9, Human neuropeptide Y (NPY-Y1) (Homo sapiens, UniProt P25929); experiment: Radioligand binding, human neuropeptide Y NPY-Y1 membranes, FlashPlate, [125I]-PYY; conditions: compound at 10 μM, [125I]-PYY; for A9: inhibition of radioligand binding: human NPY-Y1 membranes
T9 construct: purchased Perkin Elmer Biosignal
T9 sequence (P25929 1-384): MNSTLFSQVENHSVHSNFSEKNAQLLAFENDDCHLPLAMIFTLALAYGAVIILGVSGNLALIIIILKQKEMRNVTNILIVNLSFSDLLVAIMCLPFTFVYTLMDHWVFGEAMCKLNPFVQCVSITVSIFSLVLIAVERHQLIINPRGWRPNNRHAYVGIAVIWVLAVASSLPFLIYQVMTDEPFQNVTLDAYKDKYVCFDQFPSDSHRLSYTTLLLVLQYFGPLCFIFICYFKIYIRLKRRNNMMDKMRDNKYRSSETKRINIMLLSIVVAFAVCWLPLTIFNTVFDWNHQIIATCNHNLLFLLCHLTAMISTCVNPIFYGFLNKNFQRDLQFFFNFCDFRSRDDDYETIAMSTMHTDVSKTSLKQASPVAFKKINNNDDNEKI
In short: as §1

Human opioid (ORL1) = target: T10, Human opioid (ORL1) (Homo sapiens, UniProt P41146); experiment: Radioligand binding, human opioid ORL1 membranes, FlashPlate, [125I]-Nociceptin; conditions: compound at 10 μM, [125I]-Nociceptin; for A10: inhibition of radioligand binding: human ORL1 membranes
T10 construct: purchased Perkin Elmer Biosignal
In short: as §1

Mouse urotensin (mUR2) = target: T11, Mouse urotensin (mUR2) (Mus musculus, UniProt Q8VIH9); experiment: Radioligand binding, mouse urotensin mUR2 membranes, FlashPlate, [125I]-Urotensin II; conditions: compound at 10 μM, [125I]-Urotensin II; for A11: inhibition of radioligand binding: mouse mUR2 membranes
T11 construct: purchased Perkin Elmer Biosignal
T11 sequence (Q8VIH9 1-385): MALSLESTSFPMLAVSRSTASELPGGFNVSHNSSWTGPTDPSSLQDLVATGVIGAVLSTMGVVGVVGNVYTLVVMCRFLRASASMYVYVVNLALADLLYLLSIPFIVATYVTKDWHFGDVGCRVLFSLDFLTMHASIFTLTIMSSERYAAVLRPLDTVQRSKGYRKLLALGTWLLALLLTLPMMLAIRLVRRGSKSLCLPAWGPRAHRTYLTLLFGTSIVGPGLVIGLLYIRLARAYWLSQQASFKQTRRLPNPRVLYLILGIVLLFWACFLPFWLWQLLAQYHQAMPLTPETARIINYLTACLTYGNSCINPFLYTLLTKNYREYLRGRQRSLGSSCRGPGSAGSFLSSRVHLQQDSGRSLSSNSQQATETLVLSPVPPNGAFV
In short: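 Cloned mouse urotensin (mUR2) receptor membranes from Perkin Elmer Biosignal were immobilized in FlashPlate microplates using a proprietary coating. Each well got 19.5 μl buffer, then 0.5 μl of DMSO, reference ligand, or compound. Adding 5 μl of [125I]-Urotensin II, diluted to 5× final concentration in binding buffer, started binding. Plates were sealed with TopSeal-A and incubated 1 hour at room temperature in the dark. Wells were counted for 30 seconds each on a TopCount after a 60-second delay, and percentage inhibition was calculated.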

T3 sequence (P41968 whole entry): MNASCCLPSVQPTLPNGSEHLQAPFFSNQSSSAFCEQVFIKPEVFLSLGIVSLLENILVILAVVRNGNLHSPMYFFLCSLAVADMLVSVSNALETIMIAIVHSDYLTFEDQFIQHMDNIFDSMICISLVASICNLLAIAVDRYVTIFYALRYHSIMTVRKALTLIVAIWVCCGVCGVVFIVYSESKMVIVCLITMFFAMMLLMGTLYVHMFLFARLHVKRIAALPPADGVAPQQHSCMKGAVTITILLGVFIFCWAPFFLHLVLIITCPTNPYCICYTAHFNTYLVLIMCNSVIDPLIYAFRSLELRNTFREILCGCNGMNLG
T6 sequence (Q99705 whole entry): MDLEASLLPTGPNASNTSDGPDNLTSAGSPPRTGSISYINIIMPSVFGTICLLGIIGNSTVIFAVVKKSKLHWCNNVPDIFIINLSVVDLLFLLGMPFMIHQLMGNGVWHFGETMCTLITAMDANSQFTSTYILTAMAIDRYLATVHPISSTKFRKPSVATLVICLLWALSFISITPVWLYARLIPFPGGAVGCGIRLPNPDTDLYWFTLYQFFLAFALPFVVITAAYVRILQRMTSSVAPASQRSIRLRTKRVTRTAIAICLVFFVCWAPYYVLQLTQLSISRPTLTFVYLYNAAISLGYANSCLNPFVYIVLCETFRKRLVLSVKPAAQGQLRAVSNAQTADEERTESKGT
T7 sequence (P35372 whole entry): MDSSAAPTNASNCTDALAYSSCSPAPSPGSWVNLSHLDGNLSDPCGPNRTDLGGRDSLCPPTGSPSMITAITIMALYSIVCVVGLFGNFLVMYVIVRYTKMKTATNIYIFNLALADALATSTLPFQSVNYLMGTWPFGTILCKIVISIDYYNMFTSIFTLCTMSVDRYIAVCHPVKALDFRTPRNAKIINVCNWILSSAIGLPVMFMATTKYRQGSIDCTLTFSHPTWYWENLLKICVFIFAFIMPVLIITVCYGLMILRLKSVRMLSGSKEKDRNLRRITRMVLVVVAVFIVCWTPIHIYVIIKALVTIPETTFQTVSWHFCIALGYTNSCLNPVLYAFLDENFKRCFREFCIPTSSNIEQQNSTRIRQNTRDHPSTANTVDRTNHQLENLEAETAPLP
T2 sequence (P41145 whole entry): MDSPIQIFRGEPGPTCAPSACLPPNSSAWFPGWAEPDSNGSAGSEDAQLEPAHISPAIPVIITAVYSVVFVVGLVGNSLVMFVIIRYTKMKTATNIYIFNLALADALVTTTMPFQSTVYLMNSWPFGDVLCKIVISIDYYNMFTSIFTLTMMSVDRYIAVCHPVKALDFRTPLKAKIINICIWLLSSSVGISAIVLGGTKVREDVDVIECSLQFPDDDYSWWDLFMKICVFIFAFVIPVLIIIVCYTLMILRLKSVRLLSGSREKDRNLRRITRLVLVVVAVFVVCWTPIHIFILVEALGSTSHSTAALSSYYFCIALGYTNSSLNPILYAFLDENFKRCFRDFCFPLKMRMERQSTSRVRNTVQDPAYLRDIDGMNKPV
T10 sequence (P41146 whole entry): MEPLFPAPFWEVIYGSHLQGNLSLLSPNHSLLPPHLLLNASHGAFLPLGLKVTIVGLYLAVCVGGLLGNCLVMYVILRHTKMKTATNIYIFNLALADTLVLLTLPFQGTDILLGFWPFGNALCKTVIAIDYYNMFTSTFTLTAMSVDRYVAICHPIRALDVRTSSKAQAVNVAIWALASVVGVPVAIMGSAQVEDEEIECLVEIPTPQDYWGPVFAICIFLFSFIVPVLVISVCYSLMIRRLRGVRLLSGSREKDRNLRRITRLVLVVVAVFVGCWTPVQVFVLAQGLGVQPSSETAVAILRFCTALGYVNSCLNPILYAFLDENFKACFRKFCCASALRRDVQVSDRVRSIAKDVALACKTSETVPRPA
T5 sequence (P33032 whole entry): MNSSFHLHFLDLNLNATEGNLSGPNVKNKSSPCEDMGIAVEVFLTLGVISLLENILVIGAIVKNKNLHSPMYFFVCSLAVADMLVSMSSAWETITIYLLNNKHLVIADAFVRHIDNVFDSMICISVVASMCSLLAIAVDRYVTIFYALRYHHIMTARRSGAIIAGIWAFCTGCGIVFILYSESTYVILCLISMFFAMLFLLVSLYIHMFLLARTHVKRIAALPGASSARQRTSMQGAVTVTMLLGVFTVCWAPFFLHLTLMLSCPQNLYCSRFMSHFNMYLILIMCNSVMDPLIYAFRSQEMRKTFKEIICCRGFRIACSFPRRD
T4 sequence (P32245 whole entry): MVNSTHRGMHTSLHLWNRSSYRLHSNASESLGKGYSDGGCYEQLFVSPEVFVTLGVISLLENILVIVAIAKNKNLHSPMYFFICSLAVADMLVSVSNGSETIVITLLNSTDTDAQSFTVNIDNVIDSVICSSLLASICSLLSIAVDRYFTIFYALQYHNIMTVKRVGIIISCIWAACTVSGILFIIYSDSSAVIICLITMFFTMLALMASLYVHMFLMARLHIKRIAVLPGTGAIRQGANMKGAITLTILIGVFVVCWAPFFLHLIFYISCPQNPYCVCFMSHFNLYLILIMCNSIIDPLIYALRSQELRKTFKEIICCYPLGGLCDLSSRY
T1 sequence (P41143 whole entry): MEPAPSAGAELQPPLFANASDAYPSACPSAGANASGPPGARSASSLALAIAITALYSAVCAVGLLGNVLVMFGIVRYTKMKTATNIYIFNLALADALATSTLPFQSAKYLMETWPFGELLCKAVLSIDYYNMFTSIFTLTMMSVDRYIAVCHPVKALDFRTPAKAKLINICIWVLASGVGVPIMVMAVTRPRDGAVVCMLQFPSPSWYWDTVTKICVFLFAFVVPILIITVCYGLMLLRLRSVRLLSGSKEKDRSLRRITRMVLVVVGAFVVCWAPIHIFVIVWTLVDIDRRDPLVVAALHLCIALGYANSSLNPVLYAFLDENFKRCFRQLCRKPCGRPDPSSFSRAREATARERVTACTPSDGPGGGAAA
T8 sequence (P25103 whole entry): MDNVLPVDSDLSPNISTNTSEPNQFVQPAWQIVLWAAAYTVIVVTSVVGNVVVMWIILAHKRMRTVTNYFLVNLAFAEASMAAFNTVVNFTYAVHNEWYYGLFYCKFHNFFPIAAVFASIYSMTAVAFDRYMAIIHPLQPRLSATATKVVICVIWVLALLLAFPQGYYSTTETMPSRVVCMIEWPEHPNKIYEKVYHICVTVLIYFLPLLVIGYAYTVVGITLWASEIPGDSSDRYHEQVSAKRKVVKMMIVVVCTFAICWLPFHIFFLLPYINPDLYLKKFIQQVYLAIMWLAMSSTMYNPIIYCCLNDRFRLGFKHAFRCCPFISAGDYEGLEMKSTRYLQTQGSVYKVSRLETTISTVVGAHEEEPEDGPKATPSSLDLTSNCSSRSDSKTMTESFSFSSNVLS

SMILES	A1: inhibition of radioligand binding (Human δ-opioid (DOP))	A2: inhibition of radioligand binding (Human κ-Opioid (KOP))	A3: inhibition of radioligand binding (Human Melanocortin (MC3))	A4: inhibition of radioligand binding (Human Melanocortin (MC4))	A5: inhibition of radioligand binding (Human melanocortin (MC5))	A6: inhibition of radioligand binding [1]	A7: inhibition of radioligand binding (Human μ-opioid (MOP))	A8: inhibition of radioligand binding (Human neurokinin (NK1))	A9: inhibition of radioligand binding [2]	A10: inhibition of radioligand binding (Human opioid (ORL1))	A11: inhibition of radioligand binding (Mouse urotensin (mUR2))	A1: inhibition of radioligand binding, human δ-opioid (DOP) (Human δ-opioid (DOP))	A3: inhibition of radioligand binding, human melanocortin (MC3) (Human Melanocortin (MC3))	A4: inhibition of radioligand binding, human melanocortin (MC4) (Human Melanocortin (MC4))	A5: inhibition of radioligand binding, human melanocortin (MC5) (Human melanocortin (MC5))	A6: inhibition of radioligand binding, human melanin-concentrating hormone (MCH1) [1]	A7: inhibition of radioligand binding, human μ-opioid (MOP) (Human μ-opioid (MOP))	A8: inhibition of radioligand binding, human neurokinin (NK1) (Human neurokinin (NK1))	A10: inhibition of radioligand binding, human opioid (ORL1) (Human opioid (ORL1))	A11: inhibition of radioligand binding, mouse urotensin (mUR2) (Mouse urotensin (mUR2))	also measured
NCCC(=O)N[C@H]1C(OCc2ccc3ccccc3c2)O[C@H](COCc2ccccc2)[C@@H](O)[C@@H]1OCc1ccccc1 (stereo partly shown) [compound 450]	− (“−” indicates less than 50% inhibition at 10 μM)	− (“−” indicates less than 50% inhibition at 10 μM)	− (“−” indicates less than 50% inhibition at 10 μM)	− (“−” indicates less than 50% inhibition at 10 μM)	− (“−” indicates less than 50% inhibition at 10 μM)	− (“−” indicates less than 50% inhibition at 10 μM)	− (“−” indicates less than 50% inhibition at 10 μM)	+ (“+” indicates greater than 50% inhibition at 10 μM)	− (“−” indicates less than 50% inhibition at 10 μM)	− (“−” indicates less than 50% inhibition at 10 μM)	− (“−” indicates less than 50% inhibition at 10 μM)	–	–	–	–	–	–	–	–	–	–
NCCC(=O)NC1C(OCc2ccc3ccccc3c2)OC(COCc2ccccc2)C(O)C1OCc1ccccc1 (stereo not shown) [compound 451]	− (“−” indicates less than 50% inhibition at 10 μM)	− (“−” indicates less than 50% inhibition at 10 μM)	− (“−” indicates less than 50% inhibition at 10 μM)	+ (“+” indicates greater than 50% inhibition at 10 μM)	–	− (“−” indicates less than 50% inhibition at 10 μM)	− (“−” indicates less than 50% inhibition at 10 μM)	+ (“+” indicates greater than 50% inhibition at 10 μM)	− (“−” indicates less than 50% inhibition at 10 μM)	− (“−” indicates less than 50% inhibition at 10 μM)	− (“−” indicates less than 50% inhibition at 10 μM)	–	–	–	–	–	–	–	–	–	A5: inhibition of radioligand binding (Human melanocortin (MC5); 10 µM): − (“−” indicates less than 50% inhibition at 10 μM)
NCCCC(=O)NC1C(OCc2ccc3ccccc3c2)OC(COCc2ccccc2)C(O)C1OCc1ccc2ccccc2c1 (stereo not shown) [compound 462]	− (“−” indicates less than 50% inhibition at 10 μM)	− (“−” indicates less than 50% inhibition at 10 μM)	–	–	+ (“+” indicates greater than 50% inhibition at 10 μM)	− (“−” indicates less than 50% inhibition at 10 μM)	− (“−” indicates less than 50% inhibition at 10 μM)	+ (“+” indicates greater than 50% inhibition at 10 μM)	− (“−” indicates less than 50% inhibition at 10 μM)	–	− (“−” indicates less than 50% inhibition at 10 μM)	–	–	–	–	–	–	–	–	–	A3: inhibition of radioligand binding (Human Melanocortin (MC3); 10 µM): − (“−” indicates less than 50% inhibition at 10 μM); A4: inhibition of radioligand binding (Human Melanocortin (MC4); 10 µM): − (“−” indicates less than 50% inhibition at 10 μM); A10: inhibition of radioligand binding (Human opioid (ORL1); 10 µM): + (“+” indicates greater than 50% inhibition at 10 μM)
N=C(N)NCC(=O)N[C@H]1C(OCc2ccc(Cl)cc2)O[C@H](COCc2ccc(Cl)cc2)[C@@H](O)[C@@H]1OCc1ccc(Cl)cc1 (stereo partly shown) [compound 511]	–	–	–	–	–	–	–	–	–	–	–	− (“−” indicates less than 50% inhibition at 10 μM)	+ (“+” indicates greater than 50% inhibition at 10 μM)	+ (“+” indicates greater than 50% inhibition at 10 μM)	+ (“+” indicates greater than 50% inhibition at 10 μM)	+ (“+” indicates greater than 50% inhibition at 10 μM)	+ (“+” indicates greater than 50% inhibition at 10 μM)	+ (“+” indicates greater than 50% inhibition at 10 μM)	+ (“+” indicates greater than 50% inhibition at 10 μM)	− (“−” indicates less than 50% inhibition at 10 μM)	A2: inhibition of radioligand binding, human κ-opioid (KOP) (Human κ-Opioid (KOP)): − (“−” indicates less than 50% inhibition at 10 μM); A9: inhibition of radioligand binding, human neuropeptide Y (NPY-Y1) [2]: − (“−” indicates less than 50% inhibition at 10 μM)
N=C(N)NCC(=O)N[C@H]1C(OCc2ccc(Cl)cc2)O[C@H](COCc2ccc3ccccc3c2)[C@@H](O)[C@@H]1OCc1ccc2ccccc2c1 (stereo partly shown) [compound 512]	–	–	–	–	–	–	–	–	–	–	–	− (“−” indicates less than 50% inhibition at 10 μM)	+ (“+” indicates greater than 50% inhibition at 10 μM)	+ (“+” indicates greater than 50% inhibition at 10 μM)	+ (“+” indicates greater than 50% inhibition at 10 μM)	+ (“+” indicates greater than 50% inhibition at 10 μM)	+ (“+” indicates greater than 50% inhibition at 10 μM)	+ (“+” indicates greater than 50% inhibition at 10 μM)	+ (“+” indicates greater than 50% inhibition at 10 μM)	− (“−” indicates less than 50% inhibition at 10 μM)	A2: inhibition of radioligand binding, human κ-opioid (KOP) (Human κ-Opioid (KOP); 10 µM): − (“−” indicates less than 50% inhibition at 10 μM); A9: inhibition of radioligand binding, human neuropeptide Y (NPY-Y1) ([2]; 10 µM): − (“−” indicates less than 50% inhibition at 10 μM)
